Measured values as given in paper PMC5587727 (Nucleic Acids Research, 2017).

Biological target: hDcp2 (Homo sapiens, UniProt Q8IU60)
Experiment: In vitro RNA decapping assay with hDcp2
Type: biochemical
Conditions: RNA capped with the analogue; 15 min incubation; 100 ng capped RNA, 630 nM hDcp2

Q: For `CO[C@H]1[C@@H](O)[C@H]([n+]2cn(C)c3c(=O)[nH]c(N)nc32)O[C@@H]1COP(=O)([O-])OP(=O)(O)OP(=O)(O)OC[C@H]1O[C@@H](n2cnc3c(=O)[nH]c(N)nc32)[C@H](O)[C@@H]1O` [m2^7,3′-OGpppG], which “Decapping susceptibility (% of RNA decapping)” value is on record?
A: 74 ± 3%

Q: `Cn1c[n+]([C@@H]2O[C@H](COP(=O)(O)OP(=O)([O-])OP(=O)(O)OC[C@H]3O[C@@H](n4cnc5c(=O)[nH]c(N)nc54)[C@H](O)[C@@H]3O)[C@@H](O)[C@H]2O)c2nc(N)[nH]c(=O)c21` [m^7GpppG] was tested. Which “Decapping susceptibility (% of RNA decapping)” value did it give?
A: 82 ± 2%
